# Measurements: patent US20250195660A1, “INACTIVATING BACTERIA WITH ELECTRIC PULSES AND ANTIBIOTICS” (Purdue Research Foundation, priority 2018, published 2025)
# “Also recorded” adds a separate entry of the source.
# Experiments:
# [1] = test system: gentamicin, streptomycin and sulfonamide resistant Pseudomonas aeruginosa (BEI Resources NR-31040); experiment: Inactivation of P. aeruginosa by 300 ns electric pulses and/or antibiotics (CFU plating); type: cell-based; conditions: for additional inactivation of P. aeruginosa: 20 kV/cm NSEPs + 2 μg/mL or 20 μg/mL
# From the text: (§1) Except for rifampicin, the five other antibiotics in these examples primarily target gram-positive bacteria and are largely ineffective or not used against gram-negative bacteria in a clinical setting.
# (§2) A Blumlein pulsed generator consisting of two lines comprised of twelve 2000 pF capacitors connected by inductors produced 300 ns EPs with rise-times of 30 ns and fall-times of 35 ns at a repetition frequency of 1 Hz (12). The EPs were applied to a standard 2 mm gap electroporation cuvette (Dot Scientific R) filled with a solution containing the microorganisms. Used was a Luria broth of 0.5% salinity (5 grams of NaCl/Liter) for the solution to electrically match the resistance of the sample with the impedance of the pulse generator (11Ω) to prevent signal reflection. The voltage measurements were taken using a LeCroy PPE 20 kV high voltage probe with a 1000:1 attenuation recorded by a TeleDyne LeCroy® Waverunner 6 Zi Oscilloscope with a bandwidth of 4 GHZ.
# (§3) The gram-negative strains included a carbapenem-resistant Escherichia coli (ATCC® BA-2452TM, New Delhi metallo-beta-lactamase NDM-1 positive.), Klebsiella pneumoniae (ATCC® BAA-2146TM NDM-I positive), and a gentamicin, streptomycin and sulfonamide resistant Pseudomonas aeruginosa (BEI Resources NR-31040). Assessed was the gram-positive strain of methicillin resistant Staphylococcus aureus (USA300-0114 strain), which is also resistant to erythromycin and tetracycline. Samples were cultured in Luria broth (LB Broth Lennox, powder microbial growth medium, SIGMA-ALDRICH®) by taking 25 mL of broth in a 50 mL sterile conical tube and incubating in a shaker for 16 h at 37° C. Samples were diluted 50% by adding 25 mL media to the incubated sample as we plated controls for each experiment and condition.
# (§4) Samples were treated in 2 mm gap cuvettes containing 365 μL of sample between the electrodes, with bio-grade mineral oil added on top of the electrode plates to prevent arcing.
# (§5) To establish a common baseline for comparing different NSEP parameters, we fixed the energy density U delivered to the cuvettes according to Formula (1) (above). For 300 ns EPs, 500 EPs at 20 kV/cm and 222 EPs at 30 kV/cm delivered the same energy to the sample.
# (§6) Tissue culture Petri dishes from VWR R (15 cm diameter, 10 mm height) were utilized for plating. Each plate was covered with 15 mL of Luria broth (Agar, microbiology tested powder, SIGMA-ALDRICH®), which was prepared by adding 20 g of LB Lennox (SIGMA-ALDRICH) and 15 g/L of agar to water prior to being autoclaved. The salinity of the agar was the same as the LB (0.5% NaCl) to minimize additional environmental stressors on the bacteria.
# (§7) Removed was 20 μL from each cuvette and added to 180 μL of PBS in a 96-well dish in triplicate. Each well was then diluted by a ratio of 10:1 five additional times by taking 20 μL of the diluted sample into subsequent wells using multi-channel pipettes (using fresh tips for each dilution). Plated were the six dilutions of each sample two times each by adding 4 μL from each well onto the Petri dish using a multi-channel pipette, which allowed the plating of all three replicates on the same plate to achieve n=6. These plates were then cultured overnight in an incubator at 37° C., and counted the next day.
# [2] = test system: methicillin resistant Staphylococcus aureus (USA300-0114 strain); experiment: Inactivation of MRSA by 300 ns electric pulses and/or antibiotics (CFU plating); type: cell-based
# From the text: as §1, §2
# as §3, with “condition. […]” for “condition.”
# Removed was 20 μL from each cuvette and added to 180 μL of PBS in a 96-well dish in triplicate. […] These plates were then cultured overnight in an incubator at 37° C., and counted the next day.
# [3] = test system: carbapenem-resistant Escherichia coli (ATCC BA-2452, NDM-1 positive); experiment: Inactivation of carbapenem-resistant E. coli by 300 ns electric pulses and/or antibiotics (CFU plating); type: cell-based; conditions: drug alone, 2 μg/mL or 20 μg/mL, no EPs
# From the text: as §1, §2, §3, §4, §5, §6, §7
# [4] = test system: Klebsiella pneumoniae (ATCC BAA-2146 NDM-I positive); experiment: Inactivation of K. pneumoniae by 300 ns electric pulses and/or antibiotics (CFU plating); type: cell-based
# From the text: as §1, §2, §3, §4, §5, §6, §7
# [5] = test system: Stapphylococcus aureus (gram positive bacterium number 25923); experiment: Inactivation of S. aureus by 300 ns electric pulses combined with antibiotic (CFU plating); type: cell-based, Staphylococcus aureus
# Experimental: (§8) Equipment. Used was a capacitor based Blumlein pulse generator with a spark gap switch to produce trapezoidal EPs of 300 ns duration at the peak with rise and fall times close to 50 ns. Multiple pulses were delivered at a frequency of 1 Hz.
# (§9) The samples were treated in a standard electroporation cuvette (Dot Scientific) whose resistance must match the pulse generator's impedance to prevent pulse reflection. Utilizing Luria broth, containing 0.5% NaCl, in a cuvette with gap distances of 1 mm and 2 mm yielded the best electrical match (no reflections in the measured signal). Used were 2 mm cuvettes to ensure consistency between tests, and the applied voltage was measured across the cuvette using a LeCroy PPE 20 kV high voltage probe with a 1000:1 attenuation feeding into a TeleDyne LeCroy Waverunner 6 Zi Oscilloscope capable of measuring signals up to 4 GHz. Assuming a purely parallel plate geometry with minimal fringing gives an electric field E=V/d, where V is the peak voltage of the applied pulse and d is the gap distance.
# (§10) Sample Preparation. These experiments assessed Stapphylococcus aureus (gram positive bacterium number 25923) from ATCC and Esherichia coli (gram negative bacterium number 25922) inoculated in luria broth (LB Broth Lennox, powder microbial growth medium. SIGMA-ALDRICH) by taking 8 mL of broth in a 50 mL sterile conical tube and incubating in a shaker for 20 h at 37° C. The sample was then diluted with fresh Luria broth until attaining an optical density of 0.25 for 100 μL on a photospectrometer (Molecular Devices) for a wavelength of 562 nm as measured in a 96-well plate. The optical density, which varies with growth or tube volume, was determined experimentally and set between 1×10^8 and 1.5×10^8 colony forming units (CFUs)/mL for the samples to be pulsed. These samples were then plated at dilutions between 10-6 and 100 (no dilution) depending on the effectiveness of the pulse treatments.
# (§11) Electric Pulse Treatment Protocol. […] Although no consensus exists on a universal scaling law for applied EP “dose,” we fixed the energy density
# (§12) [formula] • where N is the number of pulses and τ is the pulse duration. Fixing U for E=40, 30, and 20 kV/cm gave N=250, 445, and 1000 pulses, respectively. Cultures were plated as described below.
# Cuvettes were filled with 365 μL of sample (sufficient to just cover the electrodes) and then 250 μL of molecular biology grade mineral oil was placed on top. Keeping the samples on ice upon achieving the required dilution further reduced experimental variability by slowing biological processes, such as fission This facilitated the assessment of the inactivation efficiency of EPs, drugs, and combined treatments.
# Tests used the clinically relevant, bactericidal drug tobramycin, which targets the 30S and 50S ribosome complex and has a clinical dose from 4 to 5 μg/mL and rifampicin, which inhibits bacterial […]. Added were 0.2, 2, and 20 μg/mL of each drug to the initial bacterial dilutions prior to pulsing. Samples were immediately placed on ice to minimize cell division and reduce variability. These aliquots were also used to plate individual unpulsed controls for each drug concentration.
# (§13) Plating. Plating was done on standard disposable tissue culture Petri dishes from VWR (15 cm diameter, 10 mm height) and covered with 10 mL of agar in luria broth (Agar, microbiology tested powder, SIGMA-ALDRICH), which was prepared by adding 20 g of LB lennox (SIGMA-ALDRICH) and 15 g/L of agar to water and then autoclaved.
# (§14) Plated were samples at dilutions of 10^−6 and 10^−3 for low and high electric field treatments, respectively, and at 10^−6 and 10^−5 for controls All samples containing 100 μL of pulsed or diluted cultures were plated on LB agar plates and counted after overnight incubation at 37° C. […]
# [6] = test system: Esherichia coli (gram negative bacterium number 25922); experiment: Inactivation of E. coli by 300 ns electric pulses combined with antibiotic (CFU plating); type: cell-based, Escherichia coli; set-up: synergy, E. coli: dose or concentration left out as unconfirmed
# Experimental: as §8
# as §9, with “Utilizing Luria broth, containing 0.5% NaCl, in a cuvette with gap distances of 1 mm and 2 mm yielded the best electrical match (no reflections in the measured signal).” left out
# as §10, §11, §12
# Cuvettes were filled with 365 μL of sample (sufficient to just cover the electrodes) and then 250 μL of molecular biology grade mineral oil was placed on top.
# Added were 0.2, 2, and 20 μg/mL of each drug to the initial bacterial dilutions prior to pulsing. Samples were immediately placed on ice to minimize cell division and reduce variability. These aliquots were also used to plate individual unpulsed controls for each drug concentration.
# as §13
# Plated were samples at dilutions of 10^−6 and 10^−3 for low and high electric field treatments, respectively, and at 10^−6 and 10^−5 for controls All samples containing 100 μL of pulsed or diluted cultures were plated on LB agar plates and counted after overnight incubation at 37° C.
# Pulsing with drugs: bacterial samples of both gram-positive S. aureus and gram-negative E. coli strains were pulsed in a solution with 0.2, 2, and 20 μg/mL of tobramycin and compared to an un-pulsed drug-exposed control. Pulsing and plating were performed to ensure that the drug exposure time of the bacteria was approximately fifteen minutes.
# bacteria = experiment: Low-dose tobramycin combined with a train of NSEPs, bacterium not specified; type: cell-based; conditions: 0.2 μg/mL, 1/20th of the recommended clinical dose; whole process approximately 15 min
# From the text: as §8
# as §10, with “These samples were then plated at dilutions between 10-6 and 100 (no dilution) depending on the effectiveness of the pulse treatments.” left out
# as §14
# [7] = same energy, different electric fields and number of pulses, different concentrations, vs antibiotic alone
compound,measurement,setting,value
C/C(=C\C(=O)OCCCCCCCCC(=O)O)C[C@@H]1OC[C@H](C[C@@H]2O[C@H]2[C@@H](C)[C@H](C)O)[C@@H](O)[C@H]1O [mupirocin],additional inactivation of P. aeruginosa,[1],no additional inactivation
same,"synergy (synergistic inactivation), MRSA",[2]; 20 μg/mL + 30 kV/cm EPs,approximately 1.5 log
same,MRSA 300 inactivation compared to using only the NSEPs,[2]; 20 μg/mL + 30 kV/cm NSEPs,improvement
same,change in E. coli population,[3],induced changes
same,inactivation of K. pneumoniae vs NSEPs,[4]; 20 kV/cm NSEPs + 2 μg/mL,slight increase
same,inactivation of K. pneumoniae vs NSEPs,[4]; 20 kV/cm NSEPs + 20 μg/mL,an increase
same,"additional inactivation compared to NSEPs alone, K. pneumoniae",[4]; 30 kV/cm NSEPs + 2 μg/mL,1 log
CC[C@H]1OC(=O)[C@H](C)[C@@H](O[C@H]2C[C@@](C)(OC)[C@@H](O)[C@H](C)O2)[C@H](C)[C@@H](O[C@@H]2O[C@H](C)C[C@H](N(C)C)[C@H]2O)[C@](C)(O)C[C@@H](C)C(=O)[C@H](C)[C@@H](O)[C@]1(C)O [erythromycin],additional inactivation of P. aeruginosa,[1],no additional inactivation
same,change in E. coli population,[3],induced changes
NC[C@H]1O[C@H](O[C@H]2[C@H](O)[C@@H](O[C@H]3O[C@H](CO)[C@@H](O)[C@H](N)[C@H]3O)[C@H](N)C[C@@H]2N)[C@H](N)C[C@@H]1O [tobramycin],reduction in S. aureus population,[5]; 20 kV/cm EPs + 0.2 μg/mL,10-20%
same,log-reduction of S. aureus,[5]; 20 kV/cm EPs + 2 μg/mL,1.5 log
same,log-reduction of S. aureus,[5]; 20 kV/cm EPs + 20 μg/mL,2.6 log
same,"synergy (additional inactivation induced by the antimicrobial for a given pulse condition), S. aureus","[5]; 20 kV/cm pulse trains, 0.2 μg/mL",no synergy
same,"synergy, S. aureus","[5]; 20 kV/cm pulse trains, 2.0 μg/mL",1.5 log
same,"synergy, S. aureus","[5]; 30 and 40 kV/cm pulse trains, 2 and 20 μg/mL doses",synergies occurred
same,effect of combining trains of 300 ns EPs with antibiotic on amount of viable S. aureus,[5]; [7],synergistically reduced; also recorded: significantly greater inactivation
same,"synergy, E. coli",[6]; 20 kV/cm treatment,did not
same,"synergy, E. coli",[6]; 30 and 40 kV/cm treatments,exhibited synergy
same,reduction of E. coli,"[6]; 40 kV/cm EPs combined with antibiotic, considered complete sterilization",over 9 log-10
same,"synergy, E. coli","[6]; any of the applied electric fields, any concentration (FIG. 5B)",experienced synergy
same,effect of combining trains of 300 ns EPs with antibiotic on amount of viable E. coli,[6]; [7],synergistically reduced; also recorded: significantly greater inactivation
same,synergy with NSEPs,bacteria,Synergy occurred
CC(=O)O[C@H]1C[C@@]2(C)[C@@H](C[C@@H](O)[C@H]3[C@@]4(C)CC[C@@H](O)[C@@H](C)[C@@H]4CC[C@@]32C)/C1=C(\CCC=C(C)C)C(=O)O [fusidic acid],change in E. coli population,[3],induced changes
CC(=O)NC[C@H]1CN(c2ccc(N3CCOCC3)c(F)c2)C(=O)O1 [linezolid],synergy (FIG. 11B legend),[1]; 20 kV/cm EPs + 20 μg/mL,approximately 2 log
same,additional inactivation of P. aeruginosa,[1],no additional inactivation
same,change in E. coli population,[3],induced changes
same,log reduction of K. pneumoniae / improvement over the NSEPs,[4]; 30 kV/cm NSEPs + 20 μg/mL,did not induce a statistically significant improvement
CN[C@H](CC(C)C)C(=O)N[C@H]1C(=O)N[C@@H](CC(N)=O)C(=O)N[C@H]2C(=O)N[C@H]3C(=O)N[C@H](C(=O)N[C@H](C(=O)O)c4cc(O)cc(O)c4-c4cc3ccc4O)[C@H](O)c3ccc(c(Cl)c3)Oc3cc2cc(c3O[C@@H]2O[C@H](CO)[C@@H](O)[C@H](O)[C@H]2O[C@H]2C[C@](C)(N)[C@H](O)[C@H](C)O2)Oc2ccc(cc2Cl)[C@H]1O [vancomycin],additional inactivation of P. aeruginosa,[1],no additional inactivation
same,log reduction of P. aeruginosa,[1]; 30 kV/cm NSEPs + 2 μg/mL,up to 2 log
same,"synergy, P. aeruginosa",[1]; 30 kV/cm NSEPs + 2 μg/mL,synergy
same,change in E. coli population,[3],induced changes
same,"additional inactivation compared to NSEPs alone, K. pneumoniae",[4]; 30 kV/cm NSEPs + 2 μg/mL,1 log
same,log reduction of K. pneumoniae,[4]; 30 kV/cm NSEPs + 2 μg/mL,5 log
